Activity calls are given as the source filed them.
Tests used:
Phosphomannomutase 2 = Phosphomannomutase 2 (Homo sapiens, UniProt O15305); test: Counter screen SAR assay for PMM2 inhibitors via a fluorescence intensity assay. [Related pubchem assays (depositor defined):AID1545, AID1574]
[1] = molecular target: Phosphoethanolamine/phosphocholine phosphatase (Homo sapiens, UniProt Q8TCT1); test: SAR assay for compounds that inhibit PHOSPHO1. [Related pubchem assays (depositor defined):AID1545, AID1565, AID1574]
[2] = molecular target: T1, Mannose-6-phosphate isomerase (Homo sapiens, UniProt P34949); test: PMI enzyme inhibitors, confirmation, biochemical, fluorescence intensity (AID 1535)
T1 sequence (P34949 whole entry): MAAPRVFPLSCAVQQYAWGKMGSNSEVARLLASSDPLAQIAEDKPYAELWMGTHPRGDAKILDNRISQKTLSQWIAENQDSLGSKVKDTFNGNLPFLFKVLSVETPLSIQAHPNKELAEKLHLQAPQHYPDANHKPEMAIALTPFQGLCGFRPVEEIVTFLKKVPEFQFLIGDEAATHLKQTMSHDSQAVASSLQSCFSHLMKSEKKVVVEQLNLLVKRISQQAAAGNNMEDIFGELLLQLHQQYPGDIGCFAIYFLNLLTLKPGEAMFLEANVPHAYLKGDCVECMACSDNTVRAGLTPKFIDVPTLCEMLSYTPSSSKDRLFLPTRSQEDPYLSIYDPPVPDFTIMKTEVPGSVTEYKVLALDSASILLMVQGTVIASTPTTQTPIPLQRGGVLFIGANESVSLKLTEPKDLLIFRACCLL

[3] = molecular target: Voltage-gated inwardly rectifying potassium channel KCNH2 (Homo sapiens, UniProt Q12809); details: Potency;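 note: confirmatory quantitative high-throughput screen measuring inhibition of hERG channel activity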
[4] = molecular target: 72 kDa type IV collagenase (Homo sapiens, UniProt P08253); test: Dose Response validation of uHTS RPN11 inhibitor hits using a MMP-2 Fluorescence assay.; type: functional
Prothrombin = Prothrombin (Bos taurus, UniProt P00735); test: thrombin inhibition, dose response, biochemical, fluorescence polarization, uHTS hits (AID 602369); type: functional
[5] = molecular target: 26S proteasome non-ATPase regulatory subunit 14 (Homo sapiens, UniProt O00487); test: inhibition of proteasome subunit RPN11 – biochemical, fluorescence polarization, uHTS hits, confirmation (AID 602368); type: functional
[6] = molecular target: Heat shock protein HSP 90-alpha (Homo sapiens, UniProt P07900); type: functional, organism-based
[7] = molecular target: T2, Intestinal-type alkaline phosphatase (Homo sapiens, UniProt P09923); test: Dose Response confirmation of uHTS hits from a small molecule inhibitors of human intestinal alkaline phosphatase via a luminescent assay. [Related pubchem assays (depositor defined):AID2544, AID2574]; type: functional
[8] = molecular target: T3, Alkaline phosphatase, tissue-nonspecific isozyme (Homo sapiens, UniProt P05186); test: inhibition of tissue-nonspecific alkaline phosphatase – biochemical, dose response (AID 488882); type: functional
T3 sequence (P05186 whole entry): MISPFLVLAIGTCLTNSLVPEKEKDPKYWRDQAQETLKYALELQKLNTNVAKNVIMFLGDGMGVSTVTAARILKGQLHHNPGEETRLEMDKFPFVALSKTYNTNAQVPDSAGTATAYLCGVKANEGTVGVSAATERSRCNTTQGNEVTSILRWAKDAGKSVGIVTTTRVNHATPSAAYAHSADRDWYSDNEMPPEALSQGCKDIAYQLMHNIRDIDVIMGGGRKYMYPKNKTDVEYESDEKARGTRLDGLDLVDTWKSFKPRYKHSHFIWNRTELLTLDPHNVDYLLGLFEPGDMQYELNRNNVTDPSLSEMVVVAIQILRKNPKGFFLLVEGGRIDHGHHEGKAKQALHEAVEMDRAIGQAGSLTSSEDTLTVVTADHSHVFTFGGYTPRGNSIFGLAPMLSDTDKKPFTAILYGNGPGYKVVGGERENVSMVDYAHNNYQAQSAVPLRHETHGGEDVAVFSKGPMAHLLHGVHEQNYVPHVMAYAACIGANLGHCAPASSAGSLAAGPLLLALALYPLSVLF

[9] = molecular target: Intestinal-type alkaline phosphatase (Mus musculus, UniProt P24822); test: PubChem AID 488874; type: functional
[10] = molecular target: T2, Intestinal-type alkaline phosphatase; test: human IAP inhibitors, dose response, biochemical, luminescent, uHTS hits, set 2 (AID 488793); type: functional
Aminopeptidase N = molecular target: T4, Aminopeptidase N (Plasmodium falciparum FcB1/Columbia, UniProt O96935); test: P. falciparum M1AAP inhibitors, biochemical, fluorogenic H-Leu-NHMec substrate, 1536-well (AID 1445); set-up: species or system Plasmodium falciparum 3D7, 3D7
T4 sequence (O96935 whole entry): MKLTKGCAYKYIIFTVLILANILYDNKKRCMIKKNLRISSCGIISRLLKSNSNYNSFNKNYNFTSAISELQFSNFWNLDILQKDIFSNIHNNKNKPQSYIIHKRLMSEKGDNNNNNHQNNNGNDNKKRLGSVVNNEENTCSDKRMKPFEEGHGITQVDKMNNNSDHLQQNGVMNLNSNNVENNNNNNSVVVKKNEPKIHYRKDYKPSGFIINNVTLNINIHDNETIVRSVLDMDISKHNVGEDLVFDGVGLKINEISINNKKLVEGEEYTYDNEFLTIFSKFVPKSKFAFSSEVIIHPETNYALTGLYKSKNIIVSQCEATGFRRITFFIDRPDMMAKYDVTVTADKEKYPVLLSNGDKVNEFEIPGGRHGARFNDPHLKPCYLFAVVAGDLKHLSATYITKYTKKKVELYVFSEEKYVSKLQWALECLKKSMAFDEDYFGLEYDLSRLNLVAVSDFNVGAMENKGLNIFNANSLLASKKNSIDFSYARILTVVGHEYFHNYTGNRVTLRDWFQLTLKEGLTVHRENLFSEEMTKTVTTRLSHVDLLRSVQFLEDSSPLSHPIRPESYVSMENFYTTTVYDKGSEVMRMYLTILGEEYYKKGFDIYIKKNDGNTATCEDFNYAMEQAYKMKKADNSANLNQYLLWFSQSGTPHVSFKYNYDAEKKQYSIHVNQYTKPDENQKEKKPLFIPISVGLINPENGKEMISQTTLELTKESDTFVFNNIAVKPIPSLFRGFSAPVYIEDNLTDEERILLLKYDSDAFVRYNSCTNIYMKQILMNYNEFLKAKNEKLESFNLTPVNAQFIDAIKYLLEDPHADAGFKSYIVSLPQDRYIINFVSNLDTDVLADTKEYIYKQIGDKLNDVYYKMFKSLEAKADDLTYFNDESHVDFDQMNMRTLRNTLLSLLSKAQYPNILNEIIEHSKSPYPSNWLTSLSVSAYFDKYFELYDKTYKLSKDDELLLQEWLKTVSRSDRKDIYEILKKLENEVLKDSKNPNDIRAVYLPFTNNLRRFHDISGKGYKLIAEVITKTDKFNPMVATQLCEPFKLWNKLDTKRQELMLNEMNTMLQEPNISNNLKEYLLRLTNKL

[11] = molecular target: FAD-linked sulfhydryl oxidase ALR (Homo sapiens, UniProt P55789); test: inhibitors of human ALR sulfhydryl oxidase, dose response, biochemical, H2O2 detection, luminescence, cherry-pick (AID 493248)
[12] = molecular target: T5, Apoptotic protease-activating factor 1 (Homo sapiens, UniProt O14727); test: activation of Apaf-1 mediated apoptosis – fluorescent, uHTS hits, dose response (AID 588554); type: functional
T5 sequence (O14727 whole entry): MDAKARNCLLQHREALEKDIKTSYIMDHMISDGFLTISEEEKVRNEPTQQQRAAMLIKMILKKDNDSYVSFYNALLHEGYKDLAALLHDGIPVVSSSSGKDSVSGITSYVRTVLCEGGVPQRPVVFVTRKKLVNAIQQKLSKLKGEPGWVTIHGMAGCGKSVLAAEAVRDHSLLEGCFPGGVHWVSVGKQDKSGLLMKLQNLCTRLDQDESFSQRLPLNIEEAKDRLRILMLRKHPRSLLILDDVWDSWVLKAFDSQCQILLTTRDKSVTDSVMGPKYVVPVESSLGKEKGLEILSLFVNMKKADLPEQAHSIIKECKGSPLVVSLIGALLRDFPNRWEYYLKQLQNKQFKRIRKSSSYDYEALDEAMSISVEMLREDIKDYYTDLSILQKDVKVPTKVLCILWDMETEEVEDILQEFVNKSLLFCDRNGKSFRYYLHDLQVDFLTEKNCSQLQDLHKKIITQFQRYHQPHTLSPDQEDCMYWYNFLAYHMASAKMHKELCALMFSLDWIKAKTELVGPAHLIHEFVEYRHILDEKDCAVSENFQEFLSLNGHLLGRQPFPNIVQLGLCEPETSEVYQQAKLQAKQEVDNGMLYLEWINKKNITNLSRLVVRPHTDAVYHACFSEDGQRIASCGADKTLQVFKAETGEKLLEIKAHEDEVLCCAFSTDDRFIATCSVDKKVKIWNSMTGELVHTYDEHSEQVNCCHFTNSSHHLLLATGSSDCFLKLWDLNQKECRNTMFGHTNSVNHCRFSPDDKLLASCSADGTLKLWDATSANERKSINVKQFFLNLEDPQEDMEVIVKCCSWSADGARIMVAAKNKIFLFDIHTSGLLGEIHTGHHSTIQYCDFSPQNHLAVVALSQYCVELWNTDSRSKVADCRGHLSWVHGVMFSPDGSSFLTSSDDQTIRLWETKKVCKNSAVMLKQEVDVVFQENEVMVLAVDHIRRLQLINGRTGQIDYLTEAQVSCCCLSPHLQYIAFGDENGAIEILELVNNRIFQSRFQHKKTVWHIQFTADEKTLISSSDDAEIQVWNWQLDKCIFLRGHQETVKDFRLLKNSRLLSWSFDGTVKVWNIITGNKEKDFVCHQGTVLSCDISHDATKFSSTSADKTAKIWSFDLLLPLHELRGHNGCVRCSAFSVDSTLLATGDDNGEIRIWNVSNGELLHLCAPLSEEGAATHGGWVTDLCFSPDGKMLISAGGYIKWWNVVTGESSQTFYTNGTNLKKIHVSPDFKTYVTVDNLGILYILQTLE

T2 sequence (P09923 whole entry): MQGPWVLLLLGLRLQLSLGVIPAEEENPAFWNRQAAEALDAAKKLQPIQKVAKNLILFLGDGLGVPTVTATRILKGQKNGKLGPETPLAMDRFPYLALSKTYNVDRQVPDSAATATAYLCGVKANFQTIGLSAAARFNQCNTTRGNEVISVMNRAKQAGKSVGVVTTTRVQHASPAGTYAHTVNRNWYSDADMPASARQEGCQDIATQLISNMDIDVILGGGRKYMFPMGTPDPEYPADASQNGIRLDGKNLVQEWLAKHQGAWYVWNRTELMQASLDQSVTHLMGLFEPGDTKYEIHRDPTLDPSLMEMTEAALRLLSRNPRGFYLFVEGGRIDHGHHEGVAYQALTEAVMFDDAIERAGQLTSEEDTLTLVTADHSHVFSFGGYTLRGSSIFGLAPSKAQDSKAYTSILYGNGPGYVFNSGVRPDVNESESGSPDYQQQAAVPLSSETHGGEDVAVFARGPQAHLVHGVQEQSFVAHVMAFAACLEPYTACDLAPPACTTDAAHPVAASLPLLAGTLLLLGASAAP
Sequence of Phosphomannomutase 2 (O15305 whole entry): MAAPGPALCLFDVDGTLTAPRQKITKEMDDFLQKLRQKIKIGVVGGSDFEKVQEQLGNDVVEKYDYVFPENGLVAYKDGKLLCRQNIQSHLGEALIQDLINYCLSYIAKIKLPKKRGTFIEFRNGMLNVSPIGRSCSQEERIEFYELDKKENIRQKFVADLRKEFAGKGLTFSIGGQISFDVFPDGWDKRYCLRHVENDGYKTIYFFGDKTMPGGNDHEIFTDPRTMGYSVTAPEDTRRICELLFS
Sequence of Intestinal-type alkaline phosphatase (Mus musculus, UniProt P24822) (P24822 whole entry): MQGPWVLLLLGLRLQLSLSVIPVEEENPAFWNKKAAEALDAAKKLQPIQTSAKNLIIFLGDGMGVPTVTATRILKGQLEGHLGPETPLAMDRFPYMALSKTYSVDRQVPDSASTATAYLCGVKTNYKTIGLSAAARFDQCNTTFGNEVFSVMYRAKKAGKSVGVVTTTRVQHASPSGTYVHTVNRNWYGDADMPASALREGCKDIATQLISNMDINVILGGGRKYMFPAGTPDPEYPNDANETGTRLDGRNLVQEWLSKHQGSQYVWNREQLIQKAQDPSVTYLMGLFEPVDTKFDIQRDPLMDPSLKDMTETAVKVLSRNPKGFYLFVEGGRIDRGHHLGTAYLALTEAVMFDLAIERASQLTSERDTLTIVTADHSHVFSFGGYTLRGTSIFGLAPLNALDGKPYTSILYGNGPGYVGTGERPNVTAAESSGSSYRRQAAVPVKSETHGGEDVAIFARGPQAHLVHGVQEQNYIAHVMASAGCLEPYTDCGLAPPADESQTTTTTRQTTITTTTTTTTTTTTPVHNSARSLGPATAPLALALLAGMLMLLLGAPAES
Sequence of Phosphoethanolamine/phosphocholine phosphatase (Q8TCT1 whole entry): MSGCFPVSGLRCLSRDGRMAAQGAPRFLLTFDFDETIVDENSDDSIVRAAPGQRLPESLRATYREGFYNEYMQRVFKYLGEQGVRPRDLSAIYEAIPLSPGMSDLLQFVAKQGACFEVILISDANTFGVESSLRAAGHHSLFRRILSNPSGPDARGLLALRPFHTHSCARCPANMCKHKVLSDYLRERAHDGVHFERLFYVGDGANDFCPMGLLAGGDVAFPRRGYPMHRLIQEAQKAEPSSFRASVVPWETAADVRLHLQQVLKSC
Sequence of FAD-linked sulfhydryl oxidase ALR (P55789 whole entry): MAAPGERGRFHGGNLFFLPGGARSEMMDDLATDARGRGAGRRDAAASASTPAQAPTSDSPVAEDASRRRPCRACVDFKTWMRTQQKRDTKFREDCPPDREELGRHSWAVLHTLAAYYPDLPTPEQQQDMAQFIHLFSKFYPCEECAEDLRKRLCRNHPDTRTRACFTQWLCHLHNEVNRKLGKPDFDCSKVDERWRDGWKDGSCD
Sequence of 26S proteasome non-ATPase regulatory subunit 14 (O00487 whole entry): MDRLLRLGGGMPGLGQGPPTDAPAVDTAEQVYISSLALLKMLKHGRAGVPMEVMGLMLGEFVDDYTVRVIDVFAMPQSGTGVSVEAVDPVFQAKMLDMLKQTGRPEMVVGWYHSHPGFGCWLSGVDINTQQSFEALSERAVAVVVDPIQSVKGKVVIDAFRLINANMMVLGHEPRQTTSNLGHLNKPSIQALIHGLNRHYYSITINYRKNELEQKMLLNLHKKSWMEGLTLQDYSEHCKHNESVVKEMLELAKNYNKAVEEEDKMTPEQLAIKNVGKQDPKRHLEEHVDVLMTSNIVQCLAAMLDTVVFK
Sequence of 72 kDa type IV collagenase (P08253 whole entry): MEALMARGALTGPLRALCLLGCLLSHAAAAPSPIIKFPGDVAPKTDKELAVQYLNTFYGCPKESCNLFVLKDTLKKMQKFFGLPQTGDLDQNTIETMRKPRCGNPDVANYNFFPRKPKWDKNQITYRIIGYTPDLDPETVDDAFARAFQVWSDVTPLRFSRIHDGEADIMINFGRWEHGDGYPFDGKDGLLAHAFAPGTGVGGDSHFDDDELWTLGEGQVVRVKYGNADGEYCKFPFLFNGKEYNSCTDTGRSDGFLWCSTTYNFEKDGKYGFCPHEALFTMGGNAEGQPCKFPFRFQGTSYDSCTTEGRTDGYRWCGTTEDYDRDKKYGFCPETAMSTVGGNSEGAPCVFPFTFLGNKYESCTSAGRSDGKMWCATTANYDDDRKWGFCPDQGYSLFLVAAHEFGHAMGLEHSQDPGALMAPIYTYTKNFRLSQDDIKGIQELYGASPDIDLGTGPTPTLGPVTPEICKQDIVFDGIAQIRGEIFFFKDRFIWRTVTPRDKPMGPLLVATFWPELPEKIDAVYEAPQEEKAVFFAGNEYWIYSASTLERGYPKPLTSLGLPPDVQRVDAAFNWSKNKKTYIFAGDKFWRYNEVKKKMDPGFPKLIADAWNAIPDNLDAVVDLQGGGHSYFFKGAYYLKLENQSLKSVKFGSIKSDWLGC
Sequence of Voltage-gated inwardly rectifying potassium channel KCNH2 (Q12809 whole entry): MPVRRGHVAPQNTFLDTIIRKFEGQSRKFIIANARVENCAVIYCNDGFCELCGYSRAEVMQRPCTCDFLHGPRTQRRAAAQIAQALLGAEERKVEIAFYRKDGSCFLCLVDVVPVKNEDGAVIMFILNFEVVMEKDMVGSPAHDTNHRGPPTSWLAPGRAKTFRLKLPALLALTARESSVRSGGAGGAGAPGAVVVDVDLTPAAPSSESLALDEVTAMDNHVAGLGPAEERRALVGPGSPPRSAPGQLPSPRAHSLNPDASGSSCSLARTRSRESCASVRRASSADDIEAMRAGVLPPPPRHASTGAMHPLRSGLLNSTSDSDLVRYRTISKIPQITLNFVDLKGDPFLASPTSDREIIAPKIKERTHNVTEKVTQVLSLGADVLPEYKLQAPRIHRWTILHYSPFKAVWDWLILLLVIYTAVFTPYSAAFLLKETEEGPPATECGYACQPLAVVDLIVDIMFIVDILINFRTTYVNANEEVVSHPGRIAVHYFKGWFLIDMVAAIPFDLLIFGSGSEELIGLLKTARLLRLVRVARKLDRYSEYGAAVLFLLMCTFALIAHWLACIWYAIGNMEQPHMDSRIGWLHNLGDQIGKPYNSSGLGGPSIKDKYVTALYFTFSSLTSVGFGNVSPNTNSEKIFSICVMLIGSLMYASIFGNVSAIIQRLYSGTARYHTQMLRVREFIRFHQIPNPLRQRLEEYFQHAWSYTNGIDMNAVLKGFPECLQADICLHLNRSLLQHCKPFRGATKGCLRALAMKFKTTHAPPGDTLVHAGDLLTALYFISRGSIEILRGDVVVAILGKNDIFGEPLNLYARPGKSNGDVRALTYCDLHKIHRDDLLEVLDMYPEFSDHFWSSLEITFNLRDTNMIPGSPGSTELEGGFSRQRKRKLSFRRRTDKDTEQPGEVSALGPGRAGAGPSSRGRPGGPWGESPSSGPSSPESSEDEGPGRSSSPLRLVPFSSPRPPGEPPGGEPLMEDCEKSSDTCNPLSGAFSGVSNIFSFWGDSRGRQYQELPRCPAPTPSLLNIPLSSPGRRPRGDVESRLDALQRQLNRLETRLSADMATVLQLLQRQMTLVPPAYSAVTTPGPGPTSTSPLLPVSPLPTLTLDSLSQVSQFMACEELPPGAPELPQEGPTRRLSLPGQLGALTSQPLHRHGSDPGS

With O=C1c2ccccc2C(=O)c2c1ccc1c(=O)n(-c3cccc([N+](=O)[O-])c3)sc21 the IC50 (Phosphomannomutase 2) was > 100 µM (inactive), the IC50 [1] was 3.6 µM (inactive) and the IC50 [2] was > 50 µM (inactive).

In the case of COc1ccccc1N1CCN(CCN(C(=O)C2CCCCC2)c2ccccn2)CC1, the AC50 [3] is reported as 31.6 µM (inconclusive).

O=C(NN1C(=O)/C(=C/c2ccc(O)c([N+](=O)[O-])c2)SC1=S)c1ccccc1Cl was tested, and the IC50 [4] was 82.1 µM (active), the IC50 (Prothrombin) was 32 µM (active) and the IC50 [5] was 39.7 µM (active). For the same compound, the AC50 [6] was 2.86 µM (active), the IC50 [7] was 25.4 µM (inactive) and the IC50 [8] was 29.8 µM (active). For the same compound, the IC50 [9] was 10.6 µM (active), the IC50 [10] was 22.9 µM (active) and the IC50 (Aminopeptidase N) was 71.1 µM (active).

For N#CCCn1cc(C(CC(=O)c2ccc(Br)cc2)C(=O)O)c2ccccc21 (stereo not given), the AC50 [11] was > 100 µM (inactive) and the EC50 [12] was 22.9 µM (active).
